One data set concerns SK-N-MC and AsPC-1 cells. As to the kind of experiment: MTT cellular proliferation assay, values stated over both tumor cell-types. Format: cell-based, human. To be noted: for Mean therapeutic index: average of the therapeutic indices for SK-N-MC and AsPC-1 vs MRC-5, 72 h/37 °C. As to the method: The anti-proliferative activity of Dp4e4mT relative to its complexes with Fe(III), Co(III), Ni(II), Cu(II), Zn(II), Ga(III), and Pd(II) was examined over incubation periods of 24-, 48-, and 72 h/37 °C (Table 2). These studies were performed using human SK-N-MC neuroepithelioma and AsPC-1 pancreatic adenocarcinoma cells that we have previously examined to assay other ligands.[15,28,43]
(§1) To examine the selectivity of the Dp4e4mT complexes against neoplastic versus normal mortal cells, their anti-proliferative efficacy was compared to mortal MRC-5 fibroblasts after a 72 h/37 °C incubation (Table 3). […] To further examine selectivity, an in vitro therapeutic index was calculated as per our previous investigations.[28,57,59,66,67] This parameter is derived from the ratio of the IC50 of MRC-5 cells/IC50 of SK-N-MC or AsPC-1 cells; with high ratios indicating greater selective anti-proliferative activity against neoplastic cells (Table 3). The mean therapeutic index is the average of the therapeutic indices calculated for both tumor cell-types. […] The mean therapeutic index of Dp4e4mT exceeded that obtained for clinically trialed DpC (157), as well as that of Dp44mT (112) and DFO (6). […]
(§2) All cell lines were procured from the American Type Culture Collection (ATCC; Manassas, VA). The SK-N-MC neuroepithelioma cell line and the mortal MRC-5 fibroblasts were cultured in minimum essential medium (Sigma-Aldrich), while the AsPC-1 cell line was cultured in Roswell Park Memorial Institute 1640 medium (Thermo Fisher Scientific, MA, USA). Both media were supplemented with 10% fetal calf serum, non-essential amino acids (1 mM), sodium pyruvate (1 mM), L-glutamine (2 mM), penicillin (100 U/mL), streptomycin (100 U/mL), and Fungizone (0.5 µg/mL). Cells were maintained at 37 °C in an incubator under a humidified atmosphere with 5% CO 2, following established protocols. 11 Cellular Proliferation Assay
(§3) Cellular proliferation was evaluated through the established 3-(4,5-dimethylthiazol-2-yl)-2,5-diphenyltetrazolium bromide (MTT) proliferation assay, validated by viable cell counts.12 […]
(§4) Ligands and complexes were dissolved in DMSO to make a stock solution of 10 mM, subsequently diluted in culture media. For cell culture experiments, the DMSO's maximum concentration remained below 0.5% (v/v), with no discernible impact on proliferation.12 MTT […]
(§5) Trypan blue staining.12 Analysis of the data was executed employing MARS Data Analysis Software (BMG LabTech; version 3.30). The concentration of agents necessary to inhibit cellular proliferation by 50% (IC 50) was then calculated. […]
Background: Tetrazolium dyes change colour on reduction, which living cells bring about.

For a further data set, the system named is MRC-5 fibroblasts. As to the kind of experiment: MTT cellular proliferation assay, mortal MRC-5 fibroblasts. The data set is classed as cell-based. To be noted: 37 °C, mean ± SD (3 experiments). The procedure:
as §1, §2, §3, §4, §5

The target in data set [1] is T1, oxy-Hb in intact human erythrocytes (Homo sapiens, UniProt P68871+P69905).
T1 construct: Physiologically, oxy-Hb is found in erythrocytes; endogenous in cells; host or cells: intact human erythrocytes from fresh blood of healthy donors
In words: Oxidation of oxy-Hb in intact human erythrocytes. Format: cell-based. To be noted: 10 μM, 3 h/37 °C. As to the method:
Fig. 7 (A and B) Investigation of the effects of Dp4e4mT and its Fe(III), Co(III), Ni(II), Cu(II), Zn(II), Ga(III), and Pd(II) complexes versus DFO, Dp44mT, DpC and their Fe(III) complexes (10 μM) on met-Hb generation (% zero time) after an incubation of 1–3 h/20 °C with purified oxy-Hb (40 μM). (C) Investigation of the effects of Dp4e4mT and its Fe(III), Co(III), Ni(II), Cu(II), Zn(II), Ga(III), or Pd(II) complexes relative to the positive controls DFO, Dp44mT, DpC, and their Fe(III) complexes (10 μM) on oxy-Hb oxidation in intact human erythrocytes after a 3 h/37 °C incubation. Results are mean ± SD (3 experiments).
Physiologically, oxy-Hb is found in erythrocytes, and in the current investigation, the ligands and complexes (10 μM) were incubated with intact human erythrocytes for 3 h/37 °C to assess their effects on oxy-Hb oxidation (Fig. 7C). As expected from our previous studies,[28,39] […]
In experiments examining the activity of the agents, all complexes were dissolved in 1,2-propanediol, then diluted to 10 µM in PBS (pH 7.2). […]
1800; Shimadzu, Kyoto, Japan). Concentrations of met-Mb and met-Hb, as well as reduced-Mb and reduced-Hb, were determined at 409 nm and 435 nm, respectively. Concentrations of oxy-Mb and oxy-Hb were determined at 544 nm and 582 nm, respectively. 17 Oxidation of Oxy-Hb in Human Erythrocytes
Oxidation of oxy-Hb in human erythrocytes was performed by standard methods using fresh blood from healthy donors after collection in Vacutainer® collection tubes (BD, Plymouth, UK).8 Erythrocytes centrifuged (480 xg/5 min/4°C) and then washed in HBSS, and subsequently resuspended in this buffer. Incubation of the erythrocytes (15% hematocrit) in the absence or presence of the agents (10 μM) was performed for 3 h/37°C. The erythrocytes were […]

A further data set concerns SK-N-MC cells. In words: MTT cellular proliferation assay, SK-N-MC neuroepithelioma cells. The data set is classed as cell-based, human. To be noted: for IC50: SK-N-MC, 37 °C, MTT, mean ± SD (3 experiments); for Therapeutic index SK-N-MC: IC50 of MRC-5 cells/IC50 of SK-N-MC cells, 72 h/37 °C. The procedure:
(§6) The anti-proliferative activity of Dp4e4mT relative to its complexes with Fe(III), Co(III), Ni(II), Cu(II), Zn(II), Ga(III), and Pd(II) was examined over incubation periods of 24-, 48-, and 72 h/37 °C (Table 2). These studies were performed using human SK-N-MC neuroepithelioma and AsPC-1 pancreatic adenocarcinoma cells that we have previously examined to assay other ligands.[15,28,43] […]
as §2, §3, §4, §5

A further data set has as its system AsPC-1 cells. In words: MTT cellular proliferation assay, AsPC-1 pancreatic adenocarcinoma cells. Format: cell-based, human. To be noted: for IC50: 37 °C, MTT, mean ± SD (3 experiments); for Therapeutic index AsPC-1: IC50 of MRC-5 cells/IC50 of AsPC-1 cells, 72 h/37 °C. As to the method:
as §6, §2, §3, §4, §5

One may read the IC50 as the point on the concentration scale where inhibition reaches its midpoint.

The structures appear in SMILES notation.

T1 sequence (P69905 2-142 limits assumed): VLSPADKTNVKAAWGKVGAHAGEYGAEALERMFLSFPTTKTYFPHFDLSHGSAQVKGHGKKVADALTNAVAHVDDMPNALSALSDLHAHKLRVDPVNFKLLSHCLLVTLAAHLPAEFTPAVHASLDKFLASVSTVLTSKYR
T1 sequence (P68871 2-147 limits assumed): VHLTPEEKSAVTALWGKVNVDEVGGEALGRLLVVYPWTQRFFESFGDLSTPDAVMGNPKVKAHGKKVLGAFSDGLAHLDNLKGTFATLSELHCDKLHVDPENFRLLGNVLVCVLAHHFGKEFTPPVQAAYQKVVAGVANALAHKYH

As for `CC(=O)N(O)CCCCCNC(=O)CCC(=O)N(O)CCCCCNC(=O)CCC(=O)N(O)CCCCCN` [DFO, desferrioxamine, reference compound], the half-inhibitory concentration (IC50) was 3070 to 8180 nM in the data set with SK-N-MC and AsPC-1 cells (Homo sapiens, SK-N-MC and AsPC-1, after 72 h, read-out: IC50 (range over both cell-types)); 28910 ± 101 nM with MRC-5 fibroblasts (Homo sapiens, MRC5, MRC-5, 72 h); over 100000 nM in the data set with SK-N-MC cells (Homo sapiens, 24 h); 45270 ± 61 nM with SK-N-MC cells (Homo sapiens, 48 h); 8180 ± 2460 nM in the data set with SK-N-MC cells (Homo sapiens, 72 h); over 100000 nM in the data set on AsPC-1 cells (Homo sapiens, ASPC1, AsPC-1, 24 h). The IC50 in the data set with AsPC-1 cells (Homo sapiens, ASPC1, AsPC-1, 48 h) was 22760 ± 84 nM; in the data set with AsPC-1 cells (Homo sapiens, ASPC1, AsPC-1, 72 h) it was 3070 ± 585 nM. The compound also yielded a Mean therapeutic index in the data set on SK-N-MC and AsPC-1 cells of 6. Moreover, the “oxy-Hb oxidation in erythrocytes versus the control (in words)” value in data set [1] was “did not induce any significant (p > 0.05) increase in oxy-Hb oxidation”. Also, the “Therapeutic index SK-N-MC” value in the data set with SK-N-MC cells was 3. In addition, the “Therapeutic index AsPC-1” value in the data set on AsPC-1 cells was 9.

In the case of `CCN(C)C([S-])=NN=C(c1ccccn1)c1ccccn1.CCN(C)C([S-])=NN=C(c1ccccn1)c1ccccn1.[Cu+2]` [[Cu(Dp4e4mT)2]], the Mean therapeutic index with SK-N-MC and AsPC-1 cells is given as 99. For the same compound, the IC50 with MRC-5 fibroblasts (MRC-5, 72 h) amounted to 342 ± 121 nM; in the data set on SK-N-MC cells (24 h), 516 ± 6 nM; in the data set with SK-N-MC cells (48 h), 34 ± 6 nM; with SK-N-MC cells (72 h), 4 ± 1 nM; in the data set with AsPC-1 cells (AsPC-1, 24 h), 1140 ± 34 nM; with AsPC-1 cells (AsPC-1, 48 h) it was 44 ± 7 nM. In the data set with AsPC-1 cells (AsPC-1, 72 h), this compound had an IC50 of 3 ± 3 nM. Further, the “oxy-Hb oxidation in erythrocytes versus the control (in words)” value in data set [1] is reported as “negligible effects on oxy-Hb oxidation”. In the data set on SK-N-MC cells, the “Therapeutic index SK-N-MC” value was determined as 85. Moreover, the “Therapeutic index AsPC-1” value in the data set on AsPC-1 cells turned out to be 113.

(Values after article PMC10793205, “Differential transmetallation of complexes of the anti-cancer thiosemicarbazone, Dp4e4mT: effects on anti-proliferative efficacy, redox activity, oxy-myoglobin and oxy-hemoglobin oxidation” (Chemical Science, 2023).)
